Assay results: paper PMC6158189, “A pharmacological probe identifies cystathionine β-synthase as a new negative regulator for ferroptosis” (Cell Death & Disease, 2018)

Tests used:
hCBS S147A = biological target: T1, hCBS S147A (Homo sapiens, UniProt P35520, S147A); test: purified hCBS mutant enzyme assay; assay type: biochemical
T1 construct: hCBS-413 (a C-terminal truncated hCBS 1–413); GST (N); made in house; host or cells: E. coli BL21
Experimental: (§1) The IC50 values of CH004 for hCBS-413, hCBS-413 mutants, hCBS-FL, hCSE or hDDC were determined according to the standard assay conditions otherwise indicated.
(§2) Table S2. Inhibitory effects of CH004 on hCBS WT and mutants.

hCBS T146A = biological target: T2, hCBS T146A (Homo sapiens, UniProt P35520, T146A); test: purified hCBS mutant enzyme assay; assay type: biochemical
T2 construct: hCBS-413 (a C-terminal truncated hCBS 1–413); GST (N); made in house; host or cells: E. coli BL21
Experimental: as §1, §2

hCBS Y223F = biological target: T3, hCBS Y223F (Homo sapiens, UniProt P35520, Y223F); test: purified hCBS mutant enzyme assay; assay type: biochemical
T3 construct: hCBS-413 (a C-terminal truncated hCBS 1–413); GST (N); made in house; host or cells: E. coli BL21
Experimental: as §1, §2

HEK293T cells = test: cell death, FITC Annexin V kit, flow cytometry; assay type: cell-based; conditions: 40 μM, 12 h
Experimental: Fig. 4 CH004 arrests the cell cycle at the S phase. a CH004 reduces the cell viability of HEK293T and HepG2 cells. HEK293T or HepG2 cells were treated with indicated concentrations of CH004 for 24 h before the cell number was analyzed using the CellTiter96® Aqueous One Solution Cell Proliferation Assay (Promega, Materials and Methods). The means at each concentration of one representative experiment are shown as percentages of DMSO (control, 100%). Means ± SDs (n = 3). b Overexpression of hCBS or knock-down of hCBS counteracts the growth inhibition exerted by CH004 in HEK293T cells. Indicated HEK293T stable cell lines were treated with the CH004 or DMSO for 24 h. Then, the cell viability was quantified with the CellTiter 96® Aqueous One Solution Cell Proliferation Assay under the standard protocol (Promega). […] The efficacy for CBS overexpression and knock-down in HEK293T cells was determined by Western blotting using an anti-CBS antibody (3E1, 1:2000; Abnova). c CH004 induces cell death in HEK293T and HepG2 cells. […] HEK293T cells were incubated with indicated compounds for 12 h, and the DNA content was quantified with propidium iodide to analyze the cell cycle distribution by flow cytometry (e). The cell cycle distributions for HEK293T-shNT and HEK293T-shCBS cells were accordingly analyzed and are shown in f. […]

[1] = 150 nM CBS, 4 mM Hcys, 4 mM Cys, Tris-HCl pH 8.6

T3 sequence (P35520 1-413 Y223F): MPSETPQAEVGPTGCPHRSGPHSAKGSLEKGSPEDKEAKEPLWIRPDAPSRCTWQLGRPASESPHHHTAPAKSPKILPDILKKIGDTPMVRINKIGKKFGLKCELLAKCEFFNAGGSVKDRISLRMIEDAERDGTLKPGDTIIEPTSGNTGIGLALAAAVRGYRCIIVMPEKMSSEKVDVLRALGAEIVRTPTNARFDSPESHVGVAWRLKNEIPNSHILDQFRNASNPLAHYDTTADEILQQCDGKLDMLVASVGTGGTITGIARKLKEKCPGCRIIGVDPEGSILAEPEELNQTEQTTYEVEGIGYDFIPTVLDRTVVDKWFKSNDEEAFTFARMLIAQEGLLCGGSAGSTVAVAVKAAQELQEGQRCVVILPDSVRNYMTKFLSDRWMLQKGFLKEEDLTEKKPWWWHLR
T1 sequence (P35520 1-413 S147A): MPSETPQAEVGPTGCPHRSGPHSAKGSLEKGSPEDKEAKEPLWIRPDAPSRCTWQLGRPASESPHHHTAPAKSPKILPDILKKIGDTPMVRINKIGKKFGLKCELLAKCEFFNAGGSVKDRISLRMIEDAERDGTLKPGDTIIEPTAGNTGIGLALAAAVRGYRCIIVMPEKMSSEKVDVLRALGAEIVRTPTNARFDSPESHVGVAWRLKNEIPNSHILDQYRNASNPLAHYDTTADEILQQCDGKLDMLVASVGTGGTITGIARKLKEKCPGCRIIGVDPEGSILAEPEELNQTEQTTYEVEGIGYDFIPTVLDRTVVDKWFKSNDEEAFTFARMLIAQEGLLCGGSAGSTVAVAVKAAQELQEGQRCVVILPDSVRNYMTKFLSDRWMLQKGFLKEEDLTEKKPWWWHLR
T2 sequence (P35520 1-413 T146A): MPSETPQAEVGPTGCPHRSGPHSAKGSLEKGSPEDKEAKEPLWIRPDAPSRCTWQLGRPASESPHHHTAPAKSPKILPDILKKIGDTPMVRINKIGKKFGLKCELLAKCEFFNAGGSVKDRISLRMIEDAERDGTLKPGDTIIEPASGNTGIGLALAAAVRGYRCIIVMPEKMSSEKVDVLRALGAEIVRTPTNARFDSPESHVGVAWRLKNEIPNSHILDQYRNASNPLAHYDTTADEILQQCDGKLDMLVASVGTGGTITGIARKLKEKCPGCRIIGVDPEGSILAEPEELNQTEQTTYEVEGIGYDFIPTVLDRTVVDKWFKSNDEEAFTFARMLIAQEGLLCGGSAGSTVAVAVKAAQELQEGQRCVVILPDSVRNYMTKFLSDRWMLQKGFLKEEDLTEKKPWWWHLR

Structure (SMILES): Cn1nc(Cc2ccccc2)nc2c(=O)n(C)c(=O)nc1-2 [CH004, 3-benzyl-1,6-dimethylpyrimido[5,4-e][1,2,4]triazine-5,7(1H,6H)-dione]
- IC50 fold to WT, S147A (hCBS S147A): 4.9
- IC50 (hCBS S147A; [1]): 5.9 ± 0.8 µM
- IC50 fold to WT, T146A (hCBS T146A): 4.2
- IC50 (hCBS T146A; 2 µM CBS, 4 mM Hcys, 4 mM Cys, Tris-HCl pH 8.6): 5 ± 1.5 µM
- IC50 fold to WT, Y223F (hCBS Y223F): 3.5
- IC50 (hCBS Y223F; [1]): 4.2 ± 1 µM
- increase in cell death (HEK293T cells): ~ 30%
